For data set [1], the system named is KYSE70 cells. Nature of the data set: Proliferation IC50 (percent confluence, IncuCyte) in KYSE70 cells. Type of data set: cell-based. Conditions: Homo sapiens, read-out: proliferation IC50. As for the experimental part: (§1) IncuCyte and IC50 calculations: […] […] Readings were taken every 2 hours for at least 24 hours. […] Readings were also taken every 2 hours for 96 hours in and IncuCyte S3. YFP total intensity (correlating to NRF2 activity) was normalized to NLS-mCherry (cell number) total intensity to give a ratio (YFP/mCherry). Ratios at one time point at least 24 hours post compounds were added were used. These numbers were then plotted in Graphpad Prism to calculate IC50s. […] From three biological replicates, percent confluence was used for proliferation assays to calculate IC50s, calculations performed using Graphpad Prism.

For data set [2], the system named is NRF2 activity in H1299-NQO1-YFP cells. Nature of the data set: NRF2 activity reporter IC50 in H1299-NQO1-YFP cells vs NRF2 pathway activators (IncuCyte, YFP/mCherry). Type of data set: cell-based. The method, then:
Readings were taken every 2 hours for at least 24 hours. […] Readings were also taken every 2 hours for 96 hours in and IncuCyte S3.
YFP total intensity (correlating to NRF2 activity) was normalized to NLS-mCherry (cell number) total intensity to give a ratio (YFP/mCherry). Ratios at one time point at least 24 hours post compounds were added were used. These numbers were then plotted in Graphpad Prism to calculate IC50s. […] From three biological replicates, percent confluence was used for proliferation assays to calculate IC50s, calculations performed using Graphpad Prism.

The next data set has as its system H1299 cells. Nature of the data set: Proliferation IC50 (percent confluence, IncuCyte) in H1299 cells. Type of data set: cell-based. Particulars: Homo sapiens, read-out: proliferation IC50. The method, then:
as §1

For data set [3], the system named is NRF2 protein. As to the kind of experiment: Western blot analysis of NRF2 protein abundance and downstream targets in cell lines. The format is cell-based. Particulars: H1299, 10 μM PYR or 1 μM 115 with 0.5 μM MLN, 24 hours. (In general: In western blotting, separated proteins are transferred to a membrane and probed.)
Data set [4] relates to mutant KEAP1 activation of NRF2 pathway in H1299-NQO1-YFP cells. As to the kind of experiment: H1299-NQO1-YFP reporter cells transfected with mutant KEAP1. Type of data set: cell-based. Conditions: 10 μM PYR, mutant KEAP1 overexpressed. As for the experimental part: Data is of 3 independent experiments, error bars are SD.
H1299-NQO1-YFP cells were transfected with WT, R320Q, R470C, or V115F FLAG-KEAP1 constructs using Lipofectamine 2000. […] Calculations are detailed below. This was performed in biological triplicate and error bars are SD.

Data set [5] relates to NRF2 protein. As to the kind of experiment: Western blot analysis of NRF2 protein abundance and downstream targets in cell lines. The format is cell-based. Conditions: for NRF2 protein abundance: 24-48 hours, PYR 10 μM, analogs 1 μM (104 in HEK293T 10 μM), MTX and PEM 0.1 μM, CG 10 μM. The method, then:
(§2) Western Blots: KYSE70, HEK293T cells were plated and 24 hours later treated with compounds (see figure legends for details). Either at 24 or 48 hours later, cells were scrapped in RIPA buffer (0.2% deoxycholate, 0.1% SDS, 1% NP40, 150 mM NaCl, 50 mM Tris pH 7.4, 2 mM EDTA) supplemented with protease and phosphatase inhibitors, cleared at 14000×g for 15 minutes at 4° C., and supernatants were quantified by BCA assay (Pierce, 23225). Protein samples (20 μg) were prepared with 1×LDS buffer with 100 mM DTT, ran on NuPAGE 4-12% Bis-tris gels, and transferred onto a […] nitrocellulose membrane (Thermo, 88018). All blots were blocked in 5% milk in TBST for 30 minutes. After incubation of the primary antibody overnight at 4° C. and washed three times with 1×TBST, blots were incubated with LI-COR secondary antibodies for 1-2 hours, washed in 1×TBST thrice, and then imaged via a LI-COR Odyssey instrument (Li-COR, Lincoln, Nebr.).

Data set [6] relates to NRF2 mRNA and NRF2 target gene mRNA. Nature of the data set: RT-qPCR of NRF2 mRNA and NRF2 downstream targets in KYSE70 cells. The format is cell-based. Particulars: 24 or 48 hours, PYR 10 μM, analogs 1 μM, MTX and PEM 0.1 μM. As for the experimental part: (§3) qRT-PCR: Total RNA was extracted using PureLink RNA kit following the manufacturers protocol. Primers for qPCR were designed using the National Center for Biotechnology Information's (NCBI) Primer-BLAST platform. For primer sequences, see Table 2. RNA was quantified using a Nanodrop One (Thermo, Waltham, Mass.), and the reverse transcription reaction was performed using 2 μg of RNA with the iSCRIPT Clear kit with DNAse (Biorad, 170-8891). For the qRT-PCR, PowerUP SYBR Green (Thermo, A25741) was used, and data were analyzed on an AB QuantStudio 6 Flex Real Time PCR machine (Applied Biosystems, Foster City, Calif.). ΔCT values were normalized to housekeeping gene RPL13a and then normalized to DMSO for final ΔΔCT value.
On the technique in general: Real-time PCR tracks product formation cycle by cycle.

A further data set addresses T1, DHFR protein (Homo sapiens, UniProt P00374).
T1 construct: endogenous in cells; host or cells: KYSE70, HEK293T, H1299, A549, OE21, PC-9
T1 sequence (P00374 1-187): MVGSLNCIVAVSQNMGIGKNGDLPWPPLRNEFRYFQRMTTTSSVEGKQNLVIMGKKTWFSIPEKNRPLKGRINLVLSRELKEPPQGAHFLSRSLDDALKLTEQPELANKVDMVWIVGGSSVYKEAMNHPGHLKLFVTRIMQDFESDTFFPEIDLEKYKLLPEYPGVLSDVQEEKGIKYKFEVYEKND
As to the kind of experiment: Western blot for DHFR protein stabilization. The format is cell-based. Particulars: western blot at the doses used. The method, then:
as §2

The next data set concerns AXIN2 and CK1γ1 mRNA. As to the kind of experiment: qRT-PCR of AXIN2 and CK1γ1 mRNA (not NRF2 target genes) in KYSE70 cells. Type of data set: cell-based. Particulars: KYSE70, 48 hours; 1 μM 115, 0.1 μM MTX, 0.1 μM PEM.
Description: Single experiment shown. AXIN2 and CK1γ1 were done in same experiment, but separated for discussion. Error bars are SD and * represents p-value <0.05.
as §3

In data set [7] the test system is KYSE70 cells. Nature of the data set: Metabolomics analysis of KYSE70 cells. Type of data set: cell-based. Particulars: KYSE70, 48 hours; 10 μM PYR, 1 μM 115, 0.1 μM MTX. The method, then:
After 48 hours, 1 ml of media was aliquoted into a clean Eppendorf and kept on ice, and the rest of the media was removed from these dishes. The cells were then washed in water twice and then scrapped in ice cold methanol.

The nature of data set [8]: Mouse study on analog 115: pharmacokinetic profile and clinical observations. Particulars: for concentration at 7 h: female, CD-1, mouse, plasma. As for the experimental part:
Two tests were conducted, on for a single oral dose of 10 mg/kg and for an intravenous 2 mg/kg dose in female CD-1 mice (n=3 for each group).
Mouse study with Analog 115: All mouse work was performed by Paraza Pharma, Inc. All pertinent information and methods are listed in FIG. 17.

The next data set addresses T2, human DHFR (hDHFR) (Homo sapiens, UniProt P00374).
T2 construct: purchased
T2 sequence (P00374 1-187): T1 sequence (P00374 1-187)
Nature of the data set: Human DHFR enzymatic assay. Type of data set: biochemical. Conditions: in vitro enzymatic assay, hDHFR 3E-3 Units; read-out: hDHFR3E-3 Units IC50 μM + SEM.

The mark [9] stands for this setting: read-out: PRL295 5 μM IC50 AM ± SEM, Table 1, activator PRL295 5 μM, H1299-NQO1-YFP cells.

The structures appear in SMILES notation. Where two headings read alike, the source gives them in different places.

With `CCc1nc(N)nc(N)c1-c1ccc(Cl)cc1` [PYR, 5-(4-chlorophenyl)-6-ethylpyrimidine-2,4-diamine, reference compound], the IC50 in the data set with KYSE70 cells [1] (KYSE-70, 96 h) was found to be 1240 nM; in data set [2] (read-out: Avg IC50 μM, Table 1 and text, average over activators CDDO, PRL295, SULF, H1299-NQO1-YFP cells) it was 1.2 µM; in [2] (read-out: Avg IC50 μM, Table 3, average over activators, H1299-NQO1-YFP cells) it was 1.23 µM; in data set [2] (read-out: Avg IC50 μM, Table 6 NRF2 inhibitors) it was 1.23 µM; in data set [2] (read-out: CDDO 0.1 μM IC50 μM ± SEM, Table 1, activator CDDO 0.1 μM, H1299-NQO1-YFP cells), 1.25 ± 0.024 µM; in data set [2] (read-out: CDDO 100 nM IC50 μM ± SEM, Table 3, activator CDDO 100 nM, H1299-NQO1-YFP cells), 1.25 ± 0.024 µM. In addition, the IC50 in data set [2] (read-out: PRL295 5 μM IC50 μM ± SEM, Table 3, activator PRL295 5 μM, H1299-NQO1-YFP cells) turned out to be 0.873 ± 0.032 µM; in [2] (setting [9]) it was 0.873 ± 0.032 µM; in data set [2] (read-out: SULF 2 μM IC50 μM ± SEM, Table 1, activator SULF 2 μM, H1299-NQO1-YFP cells) it was 1.59 ± 0.0448 µM; in [2] (read-out: SULF 2 μM IC50 μM ± SEM, Table 3, activator SULF 2 μM, H1299-NQO1-YFP cells) it was 1.59 ± 0.0448 µM; in the data set with H1299 cells (NCI-H1299, 96 h) it was 3830 nM. Moreover, the “NRF2 protein levels with MLN induced stabilization” value in the data set on NRF2 protein [3] was “Neither PYR nor 115 can decrease NRF2 protein levels”. The “mutant KEAP1 activation of the NRF2 pathway” value in [4] is recorded as “repressed mutant KEAP1 activation of the pathway”. The “NRF2 protein on co-treatment with Bortezomib” value with NRF2 protein [5] (BORT 0.04 μM co-treatment, HEK293T, H1299) was “prevented PYR from decreasing NRF2”. Also, the “expression of downstream NRF2 target proteins” value in the data set on NRF2 protein [5] (western blot, PYR treatment) is recorded as “decreased expression of downstream NRF2 target proteins”. Moreover, the NRF2 protein abundance result with NRF2 protein [5] (western blot) is reported as “decreases NRF2 protein abundance”. In data set [6], the “NRF2 mRNA and NRF2 target gene mRNA” value was “abrogated NRF2 mRNA and NRF2 target gene mRNA decrease”. Moreover, on DHFR protein, the DHFR protein stabilization result is reported as “DHFR protein was stabilized”.

For the molecule `CCc1nc(N)nc(N)c1-c1cccc(C(F)(F)F)c1` [WCDD115, 6-ethyl-5-(3-(trifluoromethyl)phenyl)pyrimidine-2,4-diamine], in the data set on AXIN2 and CK1γ1 mRNA, the “AXIN2 and CK1γ1 mRNA” value was “some minimal effect on AXIN2”. Moreover, the IC50 in the data set on KYSE70 cells [1] (KYSE-70, KYSE70, 96-hour time point, one or two experiments) was determined as 31.9 nM; in data set [2] (Table 1, activator CDDO 0.1 μM, H1299-NQO1-YFP cells, read-out: CDDO 0.1 μM IC50 μM ± SEM) it was 0.052 ± 0.0001 µM; in [2] (Table 1, activator SULF 2 μM, H1299-NQO1-YFP cells, read-out: SULF 2 μM IC50 μM ± SEM) it was 0.057 ± 0.003 µM; in data set [2] (Table 1 and text, average over activators CDDO, PRL295, SULF, H1299-NQO1-YFP cells, read-out: Avg IC50), 0.05 µM; in [2] (Table 6 NRF2 inhibitors, read-out: Avg IC50), 0.057 µM; in [2] (setting [9]), 0.06 ± 0.001 µM. Moreover, the IC50 turned out to be 0.05 µM in data set [2] (unit inferred, read-out: IC50); 145 nM with H1299 cells (NCI-H1299, H1299, 96-hour time point, initial experiment); 0.144 ± 0.0224 µM on human DHFR (hDHFR). Besides, the “potency in NRF2 suppression compared to PYR” value in data set [2] (relative to PYR) is reported as 10 fold. The “reduction potential in the form of glutathione ratios” value with KYSE70 cells [7] was “decreased”. For the same molecule, the “NRF2 protein levels with MLN induced stabilization” value in the data set on NRF2 protein [3] is “Neither PYR nor 115 can decrease NRF2 protein levels”. Besides, the concentration at 7 h in data set [8] (iv, 2 mg/kg) was 76.4 ng/mL; in [8] (po, 10 mg/kg) it was ~450 ng/mL. In [8] (oral 10 mg/kg or IV 2 mg/kg, 24 hours post dosing), the “plasma level at 24 hours post dosing” value is on record as “unquantifiable”. Moreover, the NRF2 protein abundance entry in the data set with NRF2 protein [5] (western blot) was “decrease NRF2 protein abundance”.

These data come from US20220289686A1, “COMPOSITIONS OF NRF2 INHIBITING AGENTS AND METHODS OF USE THEREOF” (Washington University, priority 2021, published 2022).
